Source: patent publication US9493435B2, “IRE-1α inhibitors” (MannKing Corporation, priority 2009, dated 2016)
pEC50, pIC50: −log10 of the molar value.

How the values were obtained:
[1] = target: human IRE-1α (GST-IRE-1α) (Homo sapiens (Human), UniProt O75460); assay: IRE-1α assay (cleavage of mini-XBP-1 mRNA stem-loop substrate); format: biochemical; conditions: average IC50 for inhibition of IRE-1α in vitro
Description: A fusion protein comprising glutathione S transferase (GST) and human IRE-1α (GST-IRE-1α) obtained from a 500 ml baculovirus-infected insect cell culture can be used to measure IRE-1α activity in vitro. Five μl of a reaction mixture comprising 1× reaction buffer (5× reaction buffer is 100 mM Hepes pH 7.5, 250 mM KOAc, 2.5 mM MgCl2), 3 mM DTT, and 0.4% polyethylene glycol water is added to each well of 384 well plates. Twenty-five nanoliters of a 1 mM test compound solution are added to test wells. […] Negative control wells contain only reaction mixture and test compound. After spinning the plates at 1200 rpm for 30 seconds, 3 μl of an IRE-1α human mini-XBP-1 mRNA stem-loop substrate [NT] ID NO:1), labeled with the fluorescent dye Cy5 at the [NT] end, are added to each well of a control plate. The plates are again spun at 1200 rpm for 30 seconds. […] The plates are covered with lids and incubated for one hour at 30° C. The plates are then transferred to an […] microplate reader. Data is analyzed using data analysis software, and the percent activity of IRE-1α is calculated.

[2] = tested on: IRE-1α-mediated XBP-1 splicing in human myeloma MM.1s cells; assay: Cellular XBP-1 splicing assay in myeloma cells (RT-PCR); format: cell-based; conditions: average EC50, endogenous XBP-1 splicing in myeloma cells, DTT stress
Description: After an additional 45 minutes (2 hours total) with compound and DTT, the cells are harvested with TRIZOL® (a mono-phasic solution of phenol and guanidine isothiocyanate), and total RNA is prepared as directed by the manufacturer (Invitrogen). Human XBP-1 is amplified by RT-PCR with the following primers, which flank the 26 base unconventional intron excised by IRE-1α:
RT-PCR of unstressed (U) cells then generates the upper band. When cells are stressed (S) with the endoplasmic reticulum (ER) stressing agent DTT, IRE-1α is activated due to accumulating unfolded protein and the resulting RT-PCR product is 26 base pairs shorter.
Compounds which pass specificity assays are assayed for cellular EC50 using endogenous XBP-1 splicing in myeloma cells. XBP-1 is regulated through the excision of a 26 nucleotide intron from the XBP-1 mRNA by the highly specific endoribonuclease activity of IRE-1α. […] This splicing event is used to measure IRE-1α activity on XBP-1 mRNA in cells and tissues.
Briefly, compounds are incubated in the presence or absence of an ER stress agent (e.g., DTT), and the ratio of XBP-1u (unspliced) to XBP-1s (spliced) is quantified by RT-PCR.

human IRE-1α (GST-IRE-1α), sequence (O75460 19-977): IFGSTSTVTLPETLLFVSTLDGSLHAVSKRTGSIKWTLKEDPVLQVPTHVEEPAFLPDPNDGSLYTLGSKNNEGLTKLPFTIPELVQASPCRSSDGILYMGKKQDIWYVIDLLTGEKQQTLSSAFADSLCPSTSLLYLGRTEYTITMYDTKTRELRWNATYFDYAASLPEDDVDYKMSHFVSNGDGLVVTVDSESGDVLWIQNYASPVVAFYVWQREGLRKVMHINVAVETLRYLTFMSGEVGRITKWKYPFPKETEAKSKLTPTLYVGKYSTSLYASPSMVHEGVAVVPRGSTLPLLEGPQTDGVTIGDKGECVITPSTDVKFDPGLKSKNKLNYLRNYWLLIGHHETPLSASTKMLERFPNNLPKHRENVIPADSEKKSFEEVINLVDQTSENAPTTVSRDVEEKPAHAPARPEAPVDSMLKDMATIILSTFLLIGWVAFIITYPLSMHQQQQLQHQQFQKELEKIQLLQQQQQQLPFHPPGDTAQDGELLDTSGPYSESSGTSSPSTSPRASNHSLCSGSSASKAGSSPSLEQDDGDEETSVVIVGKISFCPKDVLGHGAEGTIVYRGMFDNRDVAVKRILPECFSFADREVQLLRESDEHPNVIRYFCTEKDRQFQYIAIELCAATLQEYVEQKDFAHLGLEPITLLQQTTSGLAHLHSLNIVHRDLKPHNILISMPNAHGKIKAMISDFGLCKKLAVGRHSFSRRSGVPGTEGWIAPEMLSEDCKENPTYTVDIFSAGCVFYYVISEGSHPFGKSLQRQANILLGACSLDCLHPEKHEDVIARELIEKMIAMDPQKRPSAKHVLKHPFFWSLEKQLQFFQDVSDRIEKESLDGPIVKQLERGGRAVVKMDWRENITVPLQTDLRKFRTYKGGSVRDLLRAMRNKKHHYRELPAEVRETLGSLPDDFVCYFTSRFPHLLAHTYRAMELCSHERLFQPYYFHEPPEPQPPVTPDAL

SMILES | pIC50 [1] | pEC50 ([2]; Homo sapiens, MM1.S) | pEC50 [2]
CCN(CC)C(=O)c1cccc(-c2ccc3c(C=O)c(O)ccc3c2)n1 [Compound 7] | > 6.00 | 5.00 | –
CN(C)C(=O)c1ccc(Cl)c(-c2ccc3c(C=O)c(O)ccc3c2)c1 [Compound 26] | < 6.00 | < 5.00 | –
CN(C)C(=O)c1ccc(-c2ccc3c(C=O)c(O)ccc3c2)c(Cl)c1 [Compound 28] | < 6.00 | < 5.00 | –
O=Cc1c(O)ccc2cc(Oc3ccc(C(=O)O)cc3)ccc12 [Compound 182] | > 7.00 | > 5.00 | –
CN(C)C(=O)C1CCN(c2ccc3c(C=O)c(O)ccc3c2)C1 (stereo not drawn) [Compound 128] | < 6.00 | < 5.00 | –
CN1CCN(C2CCN(c3ccc4ccc(O)c(C=O)c4c3)CC2)CC1 [Compound 89] | < 6.00 | < 5.00 | –
O=Cc1c(O)ccc2cc(N3CCC(C(=O)N4CCCCC4)C3)ccc12 (stereo not drawn) [Compound 129] | < 6.00 | < 5.00 | –
CC(=O)NC1CCN(c2ccc3c(C=O)c(O)ccc3c2)C1 (stereo not drawn) [Compound 154] | > 6.00 | > 5.00 | –
COCCNC(=O)c1sc(-c2ccc3c(C=O)c(O)ccc3c2)nc1C [Compound 141] | > 7.00 | > 5.00 | –
N#Cc1ccc(Oc2ccc3c(C=O)c(O)ccc3c2)cc1 [Compound 181] | > 6.00 | > 5.00 | –
COCCNC(=O)c1cccc(-c2ccc3c(C=O)c(O)ccc3c2)c1 [Compound 4] | > 7.00 | > 5.00 | –
CNC(=O)c1cccc(-c2ccc3c(C=O)c(O)ccc3c2)c1 [Compound 8] | > 7.00 | > 5.00 | –
O=Cc1c(O)ccc2cc(N3CCC(NCc4cccnc4)CC3)ccc12 [Compound 116] | < 6.00 | > 5.00 | –
CSc1ncc(-c2ccc3c(C=O)c(O)ccc3c2)cn1 [Compound 64] | < 6.00 | < 5.00 | –
CN1CCN(C(=O)COc2ccc3c(C=O)c(O)ccc3c2)CC1 [Compound 165] | < 6.00 | – | < 5.00
CC(=O)N(C)C1CCN(c2ccc3ccc(O)c(C=O)c3c2)C1 (stereo not drawn) [Compound 157] | < 6.00 | < 5.00 | –
COCc1cn(-c2ccc3c(C=O)c(O)ccc3c2)nn1 [Compound 105] | > 6.00 | > 5.00 | –
CN(C)C(=O)c1ccc(-c2ccc3c(C=O)c(O)ccc3c2)o1 [Compound 35] | > 7.00 | > 5.00 | –
Cc1cc(C(=O)N(C)C)sc1-c1ccc2c(C=O)c(O)ccc2c1 [Compound 33] | > 7.00 | > 5.00 | –

SMILES | pIC50 [1] | pEC50 ([2]; Homo sapiens, MM1.S) | pEC50 [2]
CN(Cc1ccncc1)C1CCN(c2ccc3c(C=O)c(O)ccc3c2)C1 (stereo not drawn) [Compound 147] | < 6.00 | < 5.00 | –
CS(=O)(=O)NC1CCN(c2ccc3c(C=O)c(O)ccc3c2)CC1 [Compound 93] | < 6.00 | > 5.00 | –
CNC1CCN(c2ccc3c(C=O)c(O)ccc3c2)C1 (stereo not drawn) [Compound 122] | < 6.00 | > 5.00 | –
CN(Cc1ccncc1)C(=O)C1CCN(c2ccc3c(C=O)c(O)ccc3c2)C1 (stereo not drawn) [Compound 158] | > 6.00 | < 5.00 | –
CC(C)N1CCN(c2ccc3c(C=O)c(O)ccc3c2)CC1 [Compound 99] | < 6.00 | > 5.00 | –
COCCNC(=O)c1ccc(-c2ccc3c(C=O)c(O)ccc3c2)cc1 [Compound 10] | > 6.00 | > 5.00 | –
CN(Cc1ccncc1)C(=O)C1CCN(c2ccc3ccc(O)c(C=O)c3c2)C1 (stereo not drawn) [Compound 148] | < 6.00 | < 5.00 | –
O=Cc1c(O)ccc2cc(N3CCCC3)ccc12 [Compound 59] | < 6.00 | < 5.00 | –
O=Cc1c(O)ccc2ccc(N3CCC(N4CCOCC4)CC3)cc12 [Compound 90] | < 6.00 | > 5.00 | –
O=Cc1c(O)ccc2cc(N3CCCC(NCc4ccccc4)C3)ccc12 (stereo not drawn) [Compound 98] | 6.00 | > 5.00 | –
CCCNC(=O)c1cccc(-c2ccc3c(C=O)c(O)ccc3c2)n1 [Compound 16] | > 7.00 | 5.00 | –
CN(C)C(=O)C1CCN(c2ccc3ccc(O)c(C=O)c3c2)C1 (stereo not drawn) [Compound 132] | < 6.00 | < 5.00 | –
O=Cc1c(O)ccc2cc(N3CCC(N4CCOCC4)C3)ccc12 (stereo not drawn) [Compound 107] | < 6.00 | < 5.00 | –
O=Cc1c(O)ccc2cc(-c3ccc(C(=O)NC4CCNCC4)nc3)ccc12 [Compound 151] | > 6.00 | > 5.00 | –
O=Cc1c(O)ccc2ccc(N3CCCC3)cc12 [Compound 104] | < 6.00 | < 5.00 | –
O=Cc1c(O)ccc2cc(N3CCN(C4CCNCC4)CC3)ccc12 [Compound 113] | < 6.00 | < 5.00 | –
CN(C1CCCN(c2ccc3c(C=O)c(O)ccc3c2)C1)S(C)(=O)=O (stereo not drawn) [Compound 123] | > 6.00 | – | –
CS(=O)(=O)NC1CCN(c2ccc3c(C=O)c(O)ccc3c2)CC1 [Compound 175] | < 6.00 | – | –

Now from value to compound, other results behind:

pIC50 [1] | pEC50 ([2]; Homo sapiens, MM1.S) | SMILES | pEC50 [2]
> 7.00 | > 5.00 | Cc1nc(-c2ccc3c(C=O)c(O)ccc3c2)sc1C(=O)N1CCOCC1 [Compound 109] | –
> 7.00 | > 5.00 | CN1CCCC(NC(=O)c2ccc(-c3ccc4c(C=O)c(O)ccc4c3)s2)C1 (stereo not drawn) [Compound 78] | –
> 7.00 | > 5.00 | O=Cc1c(O)ccc2cc(-c3ccc(C(=O)NC4CCCNC4)s3)ccc12 (stereo not drawn) [Compound 47] | –
> 7.00 | > 5.00 | O=Cc1c(O)ccc2cc(-c3cccc(C(=O)N4CCCC4)c3)ccc12 [Compound 1] | –
> 6.00 | < 5.00 | CN(C)CCCNC(=O)c1ccc(-c2ccc3c(C=O)c(O)ccc3c2)s1 [Compound 74] | –
> 6.00 | > 5.00 | O=Cc1c(O)ccc2cc(-c3ccc(C(=O)N4CCCC4)cc3)ccc12 [Compound 3] | –
> 6.00 | 5.00 | CN(C)C(=O)c1ccc(-c2ccc3c(C=O)c(O)ccc3c2)s1 [Compound 12] | –
> 7.00 | > 5.00 | O=Cc1c(O)ccc2cc(-c3ccc(C(=O)NCCN4CCOCC4)s3)ccc12 [Compound 36] | –
> 6.00 | < 5.00 | CC(=O)N1CCN(c2ccc3c(C=O)c(O)ccc3c2)CC1 [Compound 83] | –
> 7.00 | > 5.00 | Cc1nc(-c2ccc3c(C=O)c(O)ccc3c2)sc1C(=O)NCCN1CCOCC1 [Compound 142] | –
< 6.00 | < 5.00 | O=Cc1c(O)ccc2cc(-c3cc(C(=O)N4CCOCC4)ccc3Cl)ccc12 [Compound 24] | –
> 7.00 | > 5.00 | O=Cc1c(O)ccc2cc(-c3ccc(C(=O)NC4CCNCC4)s3)ccc12 [Compound 46] | –
> 6.00 | > 5.00 | CN1CCC(NC(=O)c2ccc(-c3ccc4c(C=O)c(O)ccc4c3)s2)CC1 [Compound 38] | –
> 6.00 | > 5.00 | NCCN1CCN(C(=O)c2ccc(-c3ccc4c(C=O)c(O)ccc4c3)s2)CC1 [Compound 55] | –
> 6.00 | > 5.00 | CN1CCN(C(=O)c2ccc(-c3ccc4c(C=O)c(O)ccc4c3)nc2)CC1 [Compound 57] | –
> 6.00 | > 5.00 | O=Cc1c(O)ccc2cc(-c3ccc(C(=O)N4CCCC4)nc3)ccc12 [Compound 124] | –
> 7.00 | > 5.00 | O=Cc1c(O)ccc2cc(-c3ccc(C(=O)NCC4CCNCC4)s3)ccc12 [Compound 43] | –
> 7.00 | > 5.00 | O=Cc1c(O)ccc2cc(-c3cccc(C(=O)N4CCCC4)n3)ccc12 [Compound 14] | –
> 7.00 | > 5.00 | O=Cc1c(O)ccc2cc(-c3ccc(C(=O)NCCN4CCOCC4)o3)ccc12 [Compound 71] | –
< 6.00 | < 5.00 | O=Cc1c(O)ccc2cc(N3CCN(Cc4ccccc4)CC3)ccc12 [Compound 95] | –
> 7.00 | > 5.00 | CN1CCN(C(=O)c2csc(-c3ccc4c(C=O)c(O)ccc4c3)n2)CC1 [Compound 60] | –
> 6.00 | > 5.00 | CN1CCN(C(=O)c2ccc(-c3ccc4c(C=O)c(O)ccc4c3)cn2)CC1 [Compound 50] | –
> 6.00 | < 5.00 | O=Cc1c(O)ccc2cc(-c3ccc(C(=O)N4CCOCC4)cn3)ccc12 [Compound 101] | –
> 7.00 | < 5.00 | Cc1cc(C(=O)N2CCOCC2)sc1-c1ccc2c(C=O)c(O)ccc2c1 [Compound 25] | –
> 7.00 | > 5.00 | Cc1nc(-c2ccc3c(C=O)c(O)ccc3c2)sc1C(=O)N1CCCC1 [Compound 140] | –
> 6.00 | – | CN1CCN(C(=O)c2ccc(Cl)c(-c3ccc4c(C=O)c(O)ccc4c3)c2)CC1 [Compound 30] | –
